Patent US20160002667A1, “PSEUDOMONAS EXOTOXINS FOR CANCER TREATMENT” (RUSH UNIVERSITY MEDICAL CENTER, priority 2013, published 2016)

What was measured:
[1] = test system: various cancer cell lines; experiment: Propidium iodide time-lapse cytotoxicity / mean time to death in various cancer cell lines infected with P. aeruginosa expressing exotoxin; assay type: cell-based; conditions: listed cancer cell lines, FIG. 4
Experimental: FIG. 4 is a table summarizing the effect of Pseudomonas exotoxins on various cancer cell lines. Pseudomonas exotoxins are able to kill a variety of cancer cell lines. Listed cell lines were infected with Pseudomonas aeruginosa expressing either ExoU, ExoS, or ExoT in the presence of the cell death dye propidium iodide and observed by time-lapse videomicroscopy. Based on PI staining analysis, the mean time to death was determined for each cell line. […] (ND: no death).
For example, ExoU kills 100% of highly metastatic breast cancer cell line 4T1 within 2-3 hours, as indicated by propidium iodide (PI) staining (red) in FIG. 1.

[2] = test system: 4T1 metastatic breast cancer cells; assay type: cell-based; conditions: cisplatin 50 uM, PI fluorescence
Experimental: The cell death stain propidium iodide (PI) was added and the cells were observed by time-lapse videomicroscopy. Cytotoxicity was determined by measuring the PI fluorescence intensity at each time point using ImageJ (NIH).
Cells were observed by time-lapse videomicroscopy in the presence of the cell death dye propidium iodide.

[3] = test system: A375 cells; experiment: Mitotic events by time-lapse video microscopy after transfection; assay type: cell-based; conditions: vector alone ~33%
Description: A375 cells were transfected with ExoT, the GAP or ADPRT domain mutants or GFP vector alone. Cells were observed by time-lapse video microscopy. The number of mitotic events per cells in each field of view was counted.

[4] = test system: HeLa cells; experiment: Apoptosis and apoptotic compensatory proliferation signaling; assay type: cell-based
Description: It has long been postulated that dying cells induce compensatory proliferation in neighboring cells as a means to control homeostasis and maintain tissue integrity but the players and the mechanisms involved in the compensatory proliferation signaling have remained unknown.

[5] = test system: cancer cells that are resistant to its cytotoxicity; experiment: G1 cell cycle arrest in cancer cells resistant to ExoT cytotoxicity; assay type: cell-based; conditions: all cancer cells examined that are resistant to ExoT cytotoxicity
Description: (v) Exotoxin T is also a potent anti-proliferative agent. […] This feature can be quite useful in combination therapy.

[6] = test system: A375 melanoma cells; experiment: Proliferation by phase time-lapse videomicroscopy after transfection; assay type: cell-based
[7] = test system: B16 cells; experiment: Cell motility tracking by time-lapse video microscopy; assay type: cell-based; conditions: tracked over a 10 h period, versus GFP transfected cells
Experimental: B16 cells were transfected with ExoT, the GAP or ADPRT domain mutants or GFP vector alone. Cells were observed by time-lapse video microscopy and tracked over a 10 h period using ImageJ (NIH). The mean track length during this time is shown. […] Importantly, ExoT could have an impact on reducing metastasis of cancer cells.

[8] = test system: A375 cells; assay type: cell-based; conditions: versus GAP domain alone, GAP/ADPRT double mutant or GFP alone
Experimental: B16 and A375 cells were transfected with either GFP-fused ExoT, GAP and/or ADPRT domain mutants or GFP vector alone. Cytotoxicty was determined by positive propidium iodide staining.
We also discovered that ExoT is effective in killing the melanoma cell lines B16 and A375. B16 cells shown here were transfected with either a GFP expressing vector or ExoT directly fused to GFP. Cells were imaged in the presence of the cell death dye propidium iodide and observed by time-lapse videomicroscopy.

[9] = synthetic substrate; cited from earlier work
[10] = test system: Rho, Rac, and Cdc42; conditions: cited from earlier work

Row | Substance | speed of killing and potency (mean time to death by PI staining) [1] | cytotoxicity compared with cisplatin [2] | mitotic cells [3] | apoptosis ([4]; HeLa) | formation of compensatory complexes and induction of proliferation in surrounding cells ([4]; apoptotic HeLa cells) | cell cycle arrest [5] | cell division [6] | mean track length [7] | cytotoxicity (positive propidium iodide staining) [8] | ADPRT activity in vitro compared to ExoS [9] [%] | GAP activity in vitro [10]
1 | ExoS | fastest killing and greatest potentcy | more potent cytotoxicity than cisplatin | – | – | – | – | – | – | – | – | –
2 | ExoT | less potent and unable to kill some cell lines | more potent cytotoxicity than cisplatin | complete block of mitotic cells | induces potent apoptosis | interferes with the ability of apoptotic HeLa cells to form compensatory complexes and induce proliferation in the surrounding cells | complete G1cell cycle arrest | blocked cell division | significantly shorter track lengths | significantly greater cytotoxicity | 0.2 | –
3 | R149K: ExoT with the invariant arginine of the GAP domain mutated to lysine | – | – | – | – | – | – | – | – | – | – | complete loss of GAP activity
